Data on 1 compound can be found in patent EP4623911A1, “PI4KB INHIBITORS FOR THE TREATMENT OF FATTY LIVER DISEASE” (ETH Zurich, priority 2024, dated 2025).

Molecules are shown by their SMILES.

This data set deals with steatotic human liver. In words: Ex vivo normothermic machine perfusion of a steatotic human liver graft. The procedure: A human liver graft was perfused for 8 days, after being discarded from all Swiss transplant centers. Use of discarded grafts was approved by local authorities (Kantonale Ethik Kommission Zürich KEK Nr. 2017-000412). […] The liver was procured with a total ischemia time of 40 min after circulatory death of the donor. It was flushed with IGL-1 solution and perfused for 2 h with Belzer MPS at 8°C. The infrahepatic vena cava was closed with a suture and the hepatic artery, portal vein, suprahepatic vena cava and common bile duct were cannulated with steel cannulas. The graft was subsequently perfused with whole blood and a custom built normothermic perfusion machine (Eshmuminov,D. et al, Nat Biotechnol 38, (2020)). Hepatic arterial pressure was controlled to be 80/50 mmHg, allowing for an average flow of 0.25 L/min. A vasodilator, epoprostenol, was automatically infused to keep arterial flow stable. Oxygenation was automatically controlled with a setpoint partial pressure of oxygen equal to 12 kPa. Portal venous flow was controlled to be at 1 L/min, resulting in a pressure of 2 mmHg on average. Further, oxygenation of portal blood was automatically regulated to achieve 65% saturation in the vena cava. Use of an electric pinch valve further allowed for pressure regulation in the vena cava, keeping a constant pressure of 0 mmHg. Glucose levels were automatically controlled by using a real-time glucose sensor (CCIT) and automated insulin infusions, keeping glucose levels at 7 mmol/L from the second day of perfusion onwards. A dialysis bypass was used to clear waste metabolites and control haematocrit levels by using a fixed dialysate influx rate of 200 mL/h and an automatically controlled outflux. Liver function was well preserved for at least 6 days and cell viability, as monitored by ATP analysis and histology, remained until the end of perfusion. After 8 days of perfusion, the liver weight decreased to 1507g (without gallbladder) and was sent for pathological examination.
Perfusate was mixed with 6 units of red blood cell concentrate (A+), 5 units of fresh frozen […], one unit of thrombocytes and 200 mL of 20% human albumin (CSL Behring). An initial bolus of 2.25 g Tazobactam and 500 mg Methylprednisolone was administered after priming. During the perfusion, 1000 U of heparin were infused per hour. Further, 2.25 g of Tazobactam, 3.36 g of ursodesoxycholic acid and 500 mg of methylprednisolone were continuously infused per day. UCB9608 was administered as a daily bolus by adding 300 µL of 50 mM solution directly to the blood reservoir, targeting a final concentration in the perfusate of 10 µM. On the first day, a larger bolus of 600 µL was given.
Adipose depots, liver pieces, differentiated iBAs, HepG2, HEK293T and HEK293-AAV cell types were homogenized in RIPA buffer (50 mM Tris-HCl pH 7.4, 150 mM NaCl, 2 mM EDTA, 1.0% Triton X100, 0.5% sodium deoxycholate) with protease inhibitors (Complete, Roche) and phosphatase inhibitors (Halt phosphatase inhibitor cocktail, ThermoFisher). The homogenates were centrifuged at 12,000×g for 10 min at 4°C to remove debris and collect whole cell extract (WCE). The concentration of WCE was determined by DC Protein Assay (Bio-Rad). After boiling the sample with Lämmeli buffer at 95°C for 5 min, equal amount of proteins was loaded and separated on 12% SDS-PAGE. […]

[1] abbreviates: UCB9608 daily, target concentration 10 µM, 8 days perfusion, unchanged in two control grafts.

In the case of `COc1ccc(NC(=O)N2CCN(c3nc(N)nc4c3cnn4C)[C@@H](C)C2)c(C)c1` [UCB9608], under setting [1], the “ATGL levels in human liver biopsies” value was “substantially elevated” and the “TG deposition in human liver biopsies” value is “reduced”. For the same compound, the “macrovesicular steatosis of the liver graft” value (after 8 days of perfusion, 15% before perfusion) was “less than 5%”. Where the note is “during perfusion with UCB9608”, the “bile acid excretion and oxygen consumption of the graft” value is listed as “normal”; the “non-esterified fatty acids (NEFAs) from dialysate” value was “detected”.
